Measurements as given in patent US9296745B2, “Diacylglycerol acyltransferase 2 inhibitors” (Pfizer Inc., priority 2012, dated 2016).
Like-named read-outs stand apart in the source and are kept apart here.

Molecular target: Human DGAT2 (hDGAT2) (Homo sapiens (Human), UniProt Q96PD7)
Test: In vitro DGAT2 assay, IC50 determination with hDGAT2 membrane fraction
Type: biochemical
Details: geometric mean
Method: Recombinant baculovirus for the FLAG-tagged hDGAT2 was generated in SF9 insect cells using Bac-to-Bac baculovirus expression system (Invitrogen) according to the manufacturer's protocol. For the expression of hDGAT2, SF9 cells (20 L) grown in Sf900II media were infected with hDGAT2 baculovirus at a multiplicity of infection of 1 in a Wave Bioreactor System 20/50P wave bag (GE Healthcare). After 40 hours of infection, the cells were then harvested by centrifugation at 5,000×g. The cell pellets were washed by resuspending in phosphate buffered saline (PBS) and collected by centrifugation at 5,000×g. The cell paste was flash frozen in liquid N2 and stored at −80° C. until needed. All operations below were at 4° C. unless otherwise noted. The cells were resuspended in lysis buffer (50 mM Tris-HCl, pH 8.0, 250 mM sucrose) including 1 mM ethylenediaminetetraacetic acid (EDTA) and the complete protease inhibitor cocktail (Roche Diagnostics) at a ratio of 3 ml buffer per 1 g cell paste. The cells were lysed by dounce homogenizer. The cell debris was removed by centrifugation at 1,000×g for 20 min, and the supernatant was centrifuged at 100,000×g for 1 hour. The resulting pellet was rinsed three times by filling ultracentrifuge tubes to the top with ice cold PBS before decanting. The washed pellet was resuspended with gentle stirring for 1 hour in lysis buffer containing 8 mM 3-[(3-cholamidopropyl)dimethylammonio]-1-propanesulfonate (CHAPS) at a ratio of 1 mL buffer per 1 g of original cell paste and centrifuged again at 100,000×g for 1 hour. The resulting supernatant (hDGAT2 membrane fraction) was aliquotted, flash frozen in liquid N2, and stored at −80° C. until use.
To 1 μL of compounds dissolved in 100% DMSO and spotted at the bottom of each well, 5 μL of 0.04% bovine serum albumin (BSA) (fatty acid free, Sigma Aldrich) was added and the mixture was incubated at room temperature for 20 minutes. To this mixture, 10 μL of hDGAT2 membrane fraction (0.01 mg/mL) diluted in 100 mM Hepes-NaOH, pH 7.4, 20 mM MgCl2 containing 200 nM methyl arachidonyl fluorophosphonate (Cayman Chemical; dried from ethyl acetate stock solution under argon gas and dissolved in DMSO as 5 mM stock) was added. […] The reaction mixtures were incubated at room temperature for 40 min and the reactions were stopped by addition of 5 μL of 1% H3PO4. After the addition of 45 μL MicroScint-E (Perkin-Elmer), plates were sealed with Top Seal-A covers (Perkin-Elmer) and phase partitioning of substrates and products was achieved using a HT-91100 microplate orbital shaker (Big Bear Automation, Santa Clara, Calif.). Plates were centrifuged at 2,000×g for 1 min in an Allegra 6R Centrifuge (Beckman Coulter) and then were sealed again with fresh covers before reading in a 1450 Microbeta Wallac Trilux Scintillation Counter (Perkin Elmer). DGAT2 activity was measured by quantifying the generated product [^14C]tridecanoylglycerol in the upper organic phase.
Inhibitors were tested at eleven different concentrations to generate IC50 values for each compound. […] Results are reported as geometric mean IC50 values.

[1] = background for complete inhibition of DGAT2 obtained with 50 μM (1R,2R)-2-({3′-Fluoro-4′-[(6-fluoro-1,3-benzothiazol-2-yl)amino]-1,1′-biphenyl-4-yl}carbonyl)cyclopentanecarboxylic acid, read-out: DGAT2 IC50

Chain of Human DGAT2 (hDGAT2) (Q96PD7 whole entry): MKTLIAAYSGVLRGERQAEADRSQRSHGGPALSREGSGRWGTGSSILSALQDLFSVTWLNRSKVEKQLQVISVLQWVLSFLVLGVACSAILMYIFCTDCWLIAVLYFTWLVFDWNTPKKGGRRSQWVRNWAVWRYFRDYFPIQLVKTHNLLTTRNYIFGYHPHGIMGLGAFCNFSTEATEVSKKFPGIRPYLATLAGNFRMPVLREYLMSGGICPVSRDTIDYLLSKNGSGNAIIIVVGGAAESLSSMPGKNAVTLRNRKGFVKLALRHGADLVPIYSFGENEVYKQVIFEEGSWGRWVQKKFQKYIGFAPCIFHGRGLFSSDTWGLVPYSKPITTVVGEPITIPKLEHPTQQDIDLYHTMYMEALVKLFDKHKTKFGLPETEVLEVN

IC50 [1] [nM] | IC50 (background for complete inhibition of DGAT2 obtained with Example 196-A instead of the cyclopentanecarboxylic acid reference, read-out: DGAT2 IC50 (nM), values in the parentheses) [nM] | Structure (SMILES)
54.7 | – | O=C([C@@H]1CCCN(c2ccc3nc(-c4ccnc(C5CC5)n4)[nH]c3n2)C1)N1C[C@@H](F)[C@H](F)C1 [Example 68, ((R)-1-(2-(2-Cyclopropylpyrimidin-4-yl)-3H-imidazo[4,5-b]pyridin-5-yl)piperidin-3-yl)((3R,4R)-3,4-difluoropyrrolidin-1-yl)methanone]
35.4 | – | O=C([C@@H]1CCCN(c2ccc3nc(-c4ccnc(C5CC5)n4)[nH]c3n2)C1)N1CC[C@@H](F)C1 [Example 69, ((R)-1-(2-(2-Cyclopropylpyrimidin-4-yl)-3H-imidazo[4,5-b]pyridin-5-yl)piperidin-3-yl)((R)-3-fluoropyrrolidin-1-yl)methanone]
162 | – | O=C([C@@H]1CCCN(c2ccc3nc(-c4ccnc(C5CC5)n4)[nH]c3n2)C1)N1CCOCC1 [Example 70, (R)-(1-(2-(2-Cyclopropylpyrimidin-4-yl)-3H-imidazo[4,5-b]pyridin-5-yl)piperidin-3-yl)(morpholino)methanone]
1470 | – | CN(C)C(=O)[C@@H]1CCCN(c2ccc3nc(-c4ccnc(C5CC5)n4)[nH]c3n2)C1 [Example 71, (R)-1-(2-(2-Cyclopropylpyrimidin-4-yl)-3H-imidazo[4,5-b]pyridin-5-yl)-N,N-dimethylpiperidine-3-carboxamide]
104 | – | Cc1cnn(C2(c3nc4ccc(N5CCC[C@@H](C(=O)N6CCCC6)C5)nc4[nH]3)CC2)c1 [Example 72]
107 | – | O=C([C@@H]1CCCN(c2ccc3nc(C4(n5cc(C6CC6)cn5)CC4)[nH]c3n2)C1)N1CCCC1 [Example 77, (R)-(1-(2-(1-(4-Cyclopropyl-1H-pyrazol-1-yl)cyclopropyl)-3H-imidazo[4,5-b]pyridin-5-yl)piperidin-3-yl)(pyrrolidin-1-yl)methanone]
230 | 238 | O=C([C@@H]1CCCN(c2ccc3nc(C4(n5cccn5)CC4)[nH]c3n2)C1)N1CCCC1 [Example 79, (R)-(1-(2-(1-(1H-Pyrazol-1-yl)cyclopropyl)-3H-imidazo[4,5-b]pyridin-5-yl)piperidin-3-yl)(pyrrolidin-1-yl)methanone]
1400 | – | O=C([C@@H]1CCCN(c2ccc3nc(C4(n5cccn5)CCC4)[nH]c3n2)C1)N1CCCC1 [Example 80, (R)-(1-(2-(1-(1H-Pyrazol-1-yl)cyclobutyl)-3H-imidazo[4,5-b]pyridin-5-yl)piperidin-3-yl)(pyrrolidin-1-yl)methanone]
9.55 | – | O=C([C@@H]1CCCN(c2ccc3nc(-c4nc(C5CC5)cs4)[nH]c3n2)C1)N1CCCC1 [Example 84, (R)-(1-(2-(4-Cyclopropylthiazol-2-yl)-3H-imidazo[4,5-b]pyridin-5-yl)piperidin-3-yl)(pyrrolidin-1-yl)methanone]
1160 | – | O=C([C@@H]1CCCN(c2ccc3nc(C4(Cc5ccccc5)COC4)[nH]c3n2)C1)N1CCCC1 [Example 85, (R)-(1-(2-(3-Benzyloxetan-3-yl)-3H-imidazo[4,5-b]pyridin-5-yl)piperidin-3-yl)(pyrrolidin-1-yl)methanone]
288 | – | Cc1cc(C2(c3nc4ccc(N5CCC[C@@H](C(=O)N6CCCC6)C5)nc4[nH]3)CC2)on1 [Example 86, (R)-(1-(2-(1-(3-Methylisoxazol-5-yl)cyclopropyl)-3H-imidazo[4,5-b]pyridin-5-yl)piperidin-3-yl)(pyrrolidin-1-yl)methanone]
102 | – | Cc1cc(C2(c3nc4ccc(N5CCC[C@@H](C(=O)N6CCCC6)C5)nc4[nH]3)CC2)no1 [Example 87, (R)-(1-(2-(1-(5-Methylisoxazol-3-yl)cyclopropyl)-3H-imidazo[4,5-b]pyridin-5-yl)piperidin-3-yl)(pyrrolidin-1-yl)methanone]
190 | – | O=C([C@@H]1CCCN(c2ccc3nc(C4(c5cccnc5)CCC4)[nH]c3n2)C1)N1CCCC1 [Example 88, (R)-(1-(2-(1-(Pyridin-3-yl)cyclobutyl)-3H-imidazo[4,5-b]pyridin-5-yl)piperidin-3-yl)(pyrrolidin-1-yl)methanone]
546 | – | Cc1ccn(C2(c3nc4ccc(N5CCC[C@@H](C(=O)N6CCCC6)C5)nc4[nH]3)CC2)n1 [Example 89, (R)-(1-(2-(1-(3-Methyl-1H-pyrazol-1-yl)cyclopropyl)-3H-imidazo[4,5-b]pyridin-5-yl)piperidin-3-yl)(pyrrolidin-1-yl)methanone]
315 | – | Cc1ccnn1C1(c2nc3ccc(N4CCC[C@@H](C(=O)N5CCCC5)C4)nc3[nH]2)CC1 [Example 90, (R)-(1-(2-(1-(5-methyl-1H-pyrazol-1-yl)cyclopropyl)-3H-imidazo[4,5-b]pyridin-5-yl)piperidin-3-yl)(pyrrolidin-1-yl)methanone]
242 | – | COc1ccccc1C1(c2nc3ccc(N4CCC[C@@H](C(=O)N5CCCC5)C4)nc3[nH]2)CC1 [Example 92, (R)-(1-(2-(1-(2-Methoxyphenyl)cyclopropyl)-3H-imidazo[4,5-b]pyridin-5-yl)piperidin-3-yl)(pyrrolidin-1-yl)methanone]
202 | – | O=C([C@@H]1CCCN(c2ccc3nc(C4(c5ccon5)CC4)[nH]c3n2)C1)N1CCCC1 [Example 93, (R)-(1-(2-(1-(Isoxazol-3-yl)cyclopropyl)-3H-imidazo[4,5-b]pyridin-5-yl)piperidin-3-yl)(pyrrolidin-1-yl)methanone]
37.3 | – | CCOC(=O)c1cc(OC)nc(-c2nc3ccc(N4CCC[C@@H](C(=O)N5CCCC5)C4)nc3[nH]2)c1 [Example 96, (R)-Ethyl 2-methoxy-6-(5-(3-(pyrrolidine-1-carbonyl)piperidin-1-yl)-3H-imidazo[4,5-b]pyridin-2-yl)isonicotinate]
96.9 | – | Cc1cccc(C2(c3nc4ccc(N5CCC[C@@H](C(=O)N6CCCC6)C5)nc4[nH]3)CC2)c1 [Example 97, (R)-Pyrrolidin-1-yl(1-(2-(1-m-tolylcyclopropyl)-3H-imidazo[4,5-b]pyridin-5-yl)piperidin-3-yl)methanone]
94.4 | – | O=C([C@@H]1CCCN(c2ccc3nc(-c4cc(C5CC5)ccn4)[nH]c3n2)C1)N1CCCC1 [Example 98, (R)-(1-(2-(4-Cyclopropylpyridin-2-yl)-3H-imidazo[4,5-b]pyridin-5-yl)piperidin-3-yl)(pyrrolidin-1-yl)methanone]
72.5 | – | O=C([C@@H]1CCCN(c2ccc3nc(-c4nccc(C5CC5)n4)[nH]c3n2)C1)N1CCCC1 [Example 99, (R)-(1-(2-(4-Cyclopropylpyrimidin-2-yl)-3H-imidazo[4,5-b]pyridin-5-yl)piperidin-3-yl)(pyrrolidin-1-yl)methanone]
47.8 | – | CNS(=O)(=O)c1cncc(-c2nc3ccc(N4CCC[C@@H](C(=O)N5CCCC5)C4)nc3[nH]2)c1 [Example 100, (R)-N-Methyl-5-(5-(3-(pyrrolidine-1-carbonyl)piperidin-1-yl)3H-imidazo[4,5-b]pyridin-2-yl)pyridine-3-sulfonamide]
60.5 | – | O=C([C@@H]1CCCN(c2ccc3nc(-c4cncc(C5CC5)n4)[nH]c3n2)C1)N1CCCC1 [Example 101, (R)-(1-(2-(6-Cyclopropylpyrazin-2-yl)-3H-imidazo[4,5-b]pyridin-5-yl)piperidin-3-yl)(pyrrolidin-1-yl)methanone]
99.6 | – | COc1cccc(C2(c3nc4ccc(N5CCC[C@@H](C(=O)N6CCCC6)C5)nc4[nH]3)CC2)c1 [Example 102, (R)-(1-(2-(1-(3-Methoxyphenyl)cyclopropyl)-3H-imidazo[4,5-b]pyridin-5-yl)piperidin-3-yl)(pyrrolidin-1-yl)methanone]
73.7 | – | Cc1ccc(C2(c3nc4ccc(N5CCC[C@@H](C(=O)N6CCCC6)C5)nc4[nH]3)CC2)cc1 [Example 103, (R)-Pyrrolidin-1-yl(1-(2-(1-(p-tolyl)cyclopropyl)-3H-imidazo[4,5-b]pyridin-5-yl)piperidin-3-yl)methanone]
